Reference: patent EP1900360A1, “Homer a new target of treating psychiatric disorders” (Abbott GmbH & Co. KG, priority 1998, dated 2000)

Legend:
[1] = system: methamphetamine-induced hyperactivity; assay: Methamphetamine antagonism (methamphetamine-induced hyperactivity, measurement of locomotor activity); format: in vivo, Mice (NMRI); conditions: drug ip 30 min prior to methamphetamine 1 mg/kg po; counts 15 to 60 min after start of measurement
Description: Methamphetamine antagonism was tested by recording methamphetamine-induced hyperactivity (measurement of locomotor activity). Mice (NMRI, 21-26 g; female) received drug or vehicle, intraperitoneally, 30 min prior to methamphetamine (MET, 1 mg/kg po). Locomotor activity was recorded in cages equipped with light beams (2 mice/cage/dose) for 1 h, starting 30 min after MET. For calculation of drug effects the counts recorded during the time period of 15 to 60 min after start of the measurement were selected. The control value was calculated as the difference between the counts recorded for the methamphetamine group and the vehicle-treated group during the same time period.

[2] = system: cataleptic syndrome; assay: Cataleptogenic effects (cataleptic syndrome, method of Wirth et al.); format: in vivo, rats, Sprague-Dawley; conditions: dose 100 mg/kg ip; cataleptic animals / animals per dose; tested 30 to 300 min after administration
Description: The cataleptic syndrome was tested according to the method described by Wirth et al. (Arch. Int. Pharmacodyn. Ther. 115, 1-31, 1958). The animals (male rats, Sprague-Dawley bodyweight 210-225 g; n/dose=4) were regarded as cataleptic if they remained in an abnormal posture for more than 15 sec, i.e. one foreleg an a 9-cm-high piece of cork. The animals were tested 30m 60, 120, 180 and 300 min after intraperitoneal administration of the test compound.

[3] = system: homer mRNA; assay: Homer gene expression in brain by in situ hybridization histochemistry; format: in vivo, Sprague-Dawley rats; conditions: for Homer gene expression induced by treatment with amphetamine: brain frontal cortex, amphetamine plus compound
Description: Adult Sprague-Dawley rats (250 g) were maintained in normal environmental conditions with free access to food and water ab libitum. Animals were treated with haloperidol (0.5 and 5 mg/kg) or saline. Naive (non-treated) animals were used as additional controls. Animals were also treated with amphetamine or with amphetamine and MPEP or SIB-1893 as described in example 18b. The animals were sacrificed by decapitation 90 minutes after treatment. Whole brain was rapidly removed from the skull, frozen in dry ice and stored at -30°C. Rat brain sections (15 μm) were obtained at -20°C in a cryostat, mounted in gelatine-coated slides and stored at -30°C until used. Olygonucleotide sequences 40 base length were selected from the homer rat gene sequence published in the GENEBANK (accession number: U92079). Antisense oligonucleotide homerAT ([NT]) was complementary to bases 559 to 599. Antisense oligonucleotide homerBT ([NT]) was complementary to bases 894-934. The corresponding sense oligonucleotides (homerAS and homerBS) were used as control probes. Synthesis was performed in a 395 Applied Biosystems DNA Synthesizer. Purified oligonucleotides were dissolved in DEPC-treated water and stored at -30°C until use. Labelling of synthetic oligoprobes was performed using a deoxynucleotidyl-transferase (TdT) labelling kit (NEP-100, NEN, Bad-Homburg, Germany). Briefly, 5 pmol of probe were incubated (2 hr) with TdT (36 units) in presence of 50 pmol of (^35S] dATP (NEN) and Cl2Co. […] Labelling efficacy was checked by paper chromatography in phosphate buffer system. Homer gene expression in rat brain was studied using in situ hybridization techniques well known in the art. In situ hybridization was performed as previously described (Garcia-Ladona et al., 1994). Briefly, Tissue sections were fixed with paraformaldehyde in PBS and treated (min) with pronase (0.25 mg/l), rapidly washed, dehydrated by consecutive incubation with 60%, 80%, 90% and 100% ethanol, rapidly dried and used for hybridization. […]

For `Cc1cccc(C=Cc2ccccc2)n1` [BSF 470213, 2-methyl-6-(2-phenylethenyl)-pyridine], the “Methamphetamine antagonism ED50” value [1] was 53.4 mg/kg ip, the “Cataleptogenic effect [x/n] at dose [mg/kg ip]” value [2] was 0/4 at dose 100 and the “Homer gene expression induced by treatment with amphetamine” value [3] was “reduced”.
For `Cc1cccc(C#Cc2ccccc2)n1.Cl` [BSF 470214, 2-methyl-8-(phenylethynyl)-pyridine hydrochloride], the “Methamphetamine antagonism ED50” value [1] was 51.2 mg/kg ip, the “Cataleptogenic effect [x/n] at dose [mg/kg ip]” value [2] was 0/4 at dose 100 and the “Homer gene expression induced by treatment with amphetamine” value [3] was “reduced”.
With `O=C(CCCN1CCC(O)(c2ccc(Cl)cc2)CC1)c1ccc(F)cc1` [haloperidol] the “homer mRNA transcripts (in situ hybridization images)” value ([3]; haloperidol 0.5 and 5 mg/kg vs controls, rat brain, 90 minutes after treatment) was “higher levels in haloperidol treated animals than in controls”.
